# Measurements published in ChEMBL document CHEMBL1155069, “Beta-ketophosphonates as beta-lactamase inhibitors: Intramolecular cooperativity between the hydrophobic subsites of a class D beta-lactamase” (Bioorg Med Chem, 2008).
# Assay: Inhibition of Escherichia coli OXA10 class D beta-lactamase by spectrophotometry
row,Structure (SMILES),Ki
1,O=C(CP(=O)(O)OCc1ccccc1)c1ccccc1 [SODIUM BENZYL PHENACYLPHOSPHONATE],> 1000 µM
2,O=C(CP(=O)(O)Oc1ccccc1)c1ccccc1 [SODIUM PHENYL PHENACYLPHOSPHONATE],> 1000 µM
3,O=C(CP(=O)(O)OCc1ccccc1)c1ccc(-c2ccccc2)cc1,> 1000 µM
4,O=C(CP(=O)(O)OCc1ccc(-c2ccccc2)cc1)c1ccc(-c2ccccc2)cc1,200 µM
5,O=C(CP(=O)(O)Oc1ccccc1)c1c(F)c(F)c(F)c(F)c1F [SODIUM PHENYL PENTAFLUOROPHENACYLPHOSPHONATE],> 1000 µM
6,O=C(CP(=O)(O)OCc1ccc(-c2ccccc2)cc1)c1ccccc1,> 1000 µM

# Assay: Inhibition of Escherichia coli OXA1 class D beta-lactamase by spectrophotometry
row,Structure (SMILES),Ki
1,Cc1onc(-c2ccccc2Cl)c1C(=O)CP(=O)(O)OCc1ccccc1,430 µM
2,O=C(CP(=O)(O)OCc1ccccc1)c1nc2ccccc2s1,170 µM
3,O=C(CP(=O)(O)OCc1ccccc1)c1ccccc1 [SODIUM BENZYL PHENACYLPHOSPHONATE],640 µM
4,O=C(CP(=O)(O)Oc1ccccc1)c1ccccc1 [SODIUM PHENYL PHENACYLPHOSPHONATE],1050 µM
5,O=C(CP(=O)(O)OCc1ccccc1)c1ccc(-c2ccccc2)cc1,230 µM
6,O=P(O)(CC(O)c1ccc(-c2ccccc2)cc1)OCc1ccccc1 (racemic),300 µM
7,O=C(CP(=O)(O)OCc1ccc(-c2ccccc2)cc1)c1ccc(-c2ccccc2)cc1,6 µM
8,O=P(O)(CC(O)c1ccccc1)OCc1ccccc1 (racemic),440 µM
9,O=C(CP(=O)(O)Oc1ccccc1)c1c(F)c(F)c(F)c(F)c1F [SODIUM PHENYL PENTAFLUOROPHENACYLPHOSPHONATE],380 µM
10,O=C(CP(=O)(O)Oc1ccccc1)c1ccc(-c2ccccc2)cc1,140 µM
11,O=C(CP(=O)(O)OCc1ccc(-c2ccccc2)cc1)c1ccccc1,200 µM
12,O=C(CP(=O)(O)OCc1ccccc1)c1ccc2[nH]c(=O)oc2c1,270 µM

# Assay: Inhibition of Escherichia coli TEM2 class A beta-lactamase by spectrophotometry
row,Structure (SMILES),Ki
1,Cc1onc(-c2ccccc2Cl)c1C(=O)CP(=O)(O)OCc1ccccc1,> 1000 µM
2,O=C(CP(=O)(O)OCc1ccccc1)c1nc2ccccc2s1,3600 µM
3,O=C(CP(=O)(O)OCc1ccccc1)c1ccccc1 [SODIUM BENZYL PHENACYLPHOSPHONATE],150 µM
4,O=C(CP(=O)(O)OCc1ccccc1)c1ccc(-c2ccccc2)cc1,> 1000 µM
5,O=P(O)(CC(O)c1ccc(-c2ccccc2)cc1)OCc1ccccc1 (racemic),> 1000 µM
6,O=P(O)(CC(O)c1ccccc1)OCc1ccccc1 (racemic),> 1000 µM
7,O=C(CP(=O)(O)Oc1ccccc1)c1c(F)c(F)c(F)c(F)c1F [SODIUM PHENYL PENTAFLUOROPHENACYLPHOSPHONATE],475 µM
8,O=C(CP(=O)(O)Oc1ccccc1)c1ccc(-c2ccccc2)cc1,920 µM
9,O=C(CP(=O)(O)OCc1ccccc1)c1ccc2[nH]c(=O)oc2c1,1500 µM

# Assay: Inhibition of Enterobacter cloacae P99 class C beta-lactamase by spectrophotometry
row,Structure (SMILES),Ki
1,Cc1onc(-c2ccccc2Cl)c1C(=O)CP(=O)(O)OCc1ccccc1,> 1000 µM
2,O=C(CP(=O)(O)OCc1ccccc1)c1nc2ccccc2s1,24 µM
3,O=C(CP(=O)(O)OCc1ccccc1)c1ccccc1 [SODIUM BENZYL PHENACYLPHOSPHONATE],670 µM
4,O=C(CP(=O)(O)Oc1ccccc1)c1ccccc1 [SODIUM PHENYL PHENACYLPHOSPHONATE],200 µM
5,O=C(CP(=O)(O)OCc1ccccc1)c1ccc(-c2ccccc2)cc1,190 µM
6,O=P(O)(CC(O)c1ccc(-c2ccccc2)cc1)OCc1ccccc1 (racemic),260 µM
7,O=C(CP(=O)(O)OCc1ccc(-c2ccccc2)cc1)c1ccc(-c2ccccc2)cc1,74 µM
8,O=P(O)(CC(O)c1ccccc1)OCc1ccccc1 (racemic),1080 µM
9,O=C(CP(=O)(O)Oc1ccccc1)c1c(F)c(F)c(F)c(F)c1F [SODIUM PHENYL PENTAFLUOROPHENACYLPHOSPHONATE],350 µM
10,O=C(CP(=O)(O)Oc1ccccc1)c1ccc(-c2ccccc2)cc1,100 µM
11,O=C(CP(=O)(O)OCc1ccccc1)c1ccc2[nH]c(=O)oc2c1,70 µM
